Assay results as given in PMC9851200, “Multiparameter phenotypic screening for endogenous TFEB and TFE3 translocation identifies novel chemical series modulating lysosome function” (Autophagy, 2022).

How the values were obtained:
Format in all cases: binding
[1] = molecular target: kinases (KINOMEscan panel) (Homo sapiens, UniProt Q9HAZ1); conditions: kinase CLK4; NEW KINOMEscan
[2] = molecular target: kinases (KINOMEscan panel) (Homo sapiens, UniProt P36888, D835Y); conditions: kinase FLT3(D835Y); NEW KINOMEscan
[3] = molecular target: T1, kinases (KINOMEscan panel) (Homo sapiens, UniProt Q08881); conditions: kinase ITK; NEW KINOMEscan
T1 sequence (Q08881 1-620): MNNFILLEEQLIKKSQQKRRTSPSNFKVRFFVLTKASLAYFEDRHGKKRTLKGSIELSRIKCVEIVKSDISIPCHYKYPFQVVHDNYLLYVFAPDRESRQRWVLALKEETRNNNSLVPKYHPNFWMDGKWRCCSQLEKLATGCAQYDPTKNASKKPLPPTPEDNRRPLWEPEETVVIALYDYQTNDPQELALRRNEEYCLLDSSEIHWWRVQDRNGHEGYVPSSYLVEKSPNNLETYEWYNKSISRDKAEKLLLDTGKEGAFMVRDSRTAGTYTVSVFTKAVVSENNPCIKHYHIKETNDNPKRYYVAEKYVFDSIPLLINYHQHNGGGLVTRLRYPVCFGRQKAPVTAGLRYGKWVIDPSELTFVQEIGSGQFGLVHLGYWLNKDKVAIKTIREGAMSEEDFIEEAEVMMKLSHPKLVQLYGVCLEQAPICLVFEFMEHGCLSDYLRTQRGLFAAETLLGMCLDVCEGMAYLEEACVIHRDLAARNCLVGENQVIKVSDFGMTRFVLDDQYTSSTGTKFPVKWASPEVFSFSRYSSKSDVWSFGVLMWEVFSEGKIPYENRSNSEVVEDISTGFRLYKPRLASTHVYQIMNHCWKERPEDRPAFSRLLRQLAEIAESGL

[4] = molecular target: kinases (KINOMEscan panel) (Homo sapiens, UniProt Q8IU85); conditions: kinase CAMK1D; NEW KINOMEscan
kinases (KINOMEscan panel) (Homo sapiens, UniProt Q8IU85), sequence (Q8IU85 whole entry): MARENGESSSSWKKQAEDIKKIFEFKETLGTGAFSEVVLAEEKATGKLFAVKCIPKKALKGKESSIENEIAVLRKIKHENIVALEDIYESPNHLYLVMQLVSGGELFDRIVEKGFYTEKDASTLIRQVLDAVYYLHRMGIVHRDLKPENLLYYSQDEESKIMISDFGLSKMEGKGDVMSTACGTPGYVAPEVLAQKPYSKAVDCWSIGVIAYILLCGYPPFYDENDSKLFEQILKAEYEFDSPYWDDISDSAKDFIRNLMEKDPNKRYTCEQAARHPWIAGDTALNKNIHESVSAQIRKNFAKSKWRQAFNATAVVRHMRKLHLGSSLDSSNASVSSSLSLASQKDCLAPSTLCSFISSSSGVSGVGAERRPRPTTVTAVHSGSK

[5] = molecular target: kinases (KINOMEscan panel) (Homo sapiens, UniProt P00533, L858R); conditions: kinase EGFR(L858R); NEW KINOMEscan
[6] = molecular target: kinases (KINOMEscan panel) (Homo sapiens, UniProt P49760); conditions: kinase CLK2; NEW KINOMEscan
kinases (KINOMEscan panel) (Homo sapiens, UniProt P49760), sequence (P49760 whole entry): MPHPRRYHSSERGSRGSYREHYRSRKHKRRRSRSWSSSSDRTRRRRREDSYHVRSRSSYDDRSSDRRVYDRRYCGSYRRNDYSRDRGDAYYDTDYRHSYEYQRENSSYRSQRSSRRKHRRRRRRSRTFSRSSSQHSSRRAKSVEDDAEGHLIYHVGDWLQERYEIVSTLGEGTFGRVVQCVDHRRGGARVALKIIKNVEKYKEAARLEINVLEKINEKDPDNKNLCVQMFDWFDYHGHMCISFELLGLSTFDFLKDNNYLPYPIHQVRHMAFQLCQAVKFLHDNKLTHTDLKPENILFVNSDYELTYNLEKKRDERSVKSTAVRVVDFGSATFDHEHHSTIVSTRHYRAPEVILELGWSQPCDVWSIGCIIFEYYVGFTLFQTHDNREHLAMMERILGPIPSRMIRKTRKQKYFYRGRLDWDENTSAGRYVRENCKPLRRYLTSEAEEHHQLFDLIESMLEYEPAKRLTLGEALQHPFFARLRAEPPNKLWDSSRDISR

[7] = molecular target: kinases (KINOMEscan panel) (Homo sapiens, UniProt P42338); conditions: PIK3CB; NEW KINOMEscan
[8] = molecular target: T2, kinases (KINOMEscan panel) (Homo sapiens, UniProt P30530); conditions: AXL; NEW KINOMEscan
T2 sequence (P30530 26-894): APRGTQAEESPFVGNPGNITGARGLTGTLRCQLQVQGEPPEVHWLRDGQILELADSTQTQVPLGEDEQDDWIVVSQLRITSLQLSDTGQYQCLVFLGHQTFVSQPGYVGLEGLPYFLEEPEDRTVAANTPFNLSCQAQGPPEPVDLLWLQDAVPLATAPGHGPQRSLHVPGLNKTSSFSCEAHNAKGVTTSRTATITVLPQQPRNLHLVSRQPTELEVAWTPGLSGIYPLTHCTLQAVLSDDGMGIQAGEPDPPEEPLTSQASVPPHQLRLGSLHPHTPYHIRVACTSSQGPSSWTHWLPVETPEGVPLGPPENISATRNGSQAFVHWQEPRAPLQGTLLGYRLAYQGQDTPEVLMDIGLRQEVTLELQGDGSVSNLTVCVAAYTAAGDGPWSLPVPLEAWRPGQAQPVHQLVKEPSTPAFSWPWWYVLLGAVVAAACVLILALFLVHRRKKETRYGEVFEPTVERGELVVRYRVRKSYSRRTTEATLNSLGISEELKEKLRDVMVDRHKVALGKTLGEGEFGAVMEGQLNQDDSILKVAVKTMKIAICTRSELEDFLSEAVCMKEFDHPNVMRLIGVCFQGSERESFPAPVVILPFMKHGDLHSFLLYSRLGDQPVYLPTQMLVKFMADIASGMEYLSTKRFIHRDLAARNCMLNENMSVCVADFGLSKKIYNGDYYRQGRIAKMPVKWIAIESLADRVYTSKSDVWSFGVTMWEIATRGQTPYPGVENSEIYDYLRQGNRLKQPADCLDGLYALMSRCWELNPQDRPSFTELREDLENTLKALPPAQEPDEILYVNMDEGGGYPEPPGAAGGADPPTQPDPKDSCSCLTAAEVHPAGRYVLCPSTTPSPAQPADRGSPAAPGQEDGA

[9] = molecular target: kinases (KINOMEscan panel) (Homo sapiens, UniProt P08922); conditions: kinase ROS1; NEW KINOMEscan
kinases (KINOMEscan panel) (Homo sapiens, UniProt P08922), sequence (P08922 28-2347): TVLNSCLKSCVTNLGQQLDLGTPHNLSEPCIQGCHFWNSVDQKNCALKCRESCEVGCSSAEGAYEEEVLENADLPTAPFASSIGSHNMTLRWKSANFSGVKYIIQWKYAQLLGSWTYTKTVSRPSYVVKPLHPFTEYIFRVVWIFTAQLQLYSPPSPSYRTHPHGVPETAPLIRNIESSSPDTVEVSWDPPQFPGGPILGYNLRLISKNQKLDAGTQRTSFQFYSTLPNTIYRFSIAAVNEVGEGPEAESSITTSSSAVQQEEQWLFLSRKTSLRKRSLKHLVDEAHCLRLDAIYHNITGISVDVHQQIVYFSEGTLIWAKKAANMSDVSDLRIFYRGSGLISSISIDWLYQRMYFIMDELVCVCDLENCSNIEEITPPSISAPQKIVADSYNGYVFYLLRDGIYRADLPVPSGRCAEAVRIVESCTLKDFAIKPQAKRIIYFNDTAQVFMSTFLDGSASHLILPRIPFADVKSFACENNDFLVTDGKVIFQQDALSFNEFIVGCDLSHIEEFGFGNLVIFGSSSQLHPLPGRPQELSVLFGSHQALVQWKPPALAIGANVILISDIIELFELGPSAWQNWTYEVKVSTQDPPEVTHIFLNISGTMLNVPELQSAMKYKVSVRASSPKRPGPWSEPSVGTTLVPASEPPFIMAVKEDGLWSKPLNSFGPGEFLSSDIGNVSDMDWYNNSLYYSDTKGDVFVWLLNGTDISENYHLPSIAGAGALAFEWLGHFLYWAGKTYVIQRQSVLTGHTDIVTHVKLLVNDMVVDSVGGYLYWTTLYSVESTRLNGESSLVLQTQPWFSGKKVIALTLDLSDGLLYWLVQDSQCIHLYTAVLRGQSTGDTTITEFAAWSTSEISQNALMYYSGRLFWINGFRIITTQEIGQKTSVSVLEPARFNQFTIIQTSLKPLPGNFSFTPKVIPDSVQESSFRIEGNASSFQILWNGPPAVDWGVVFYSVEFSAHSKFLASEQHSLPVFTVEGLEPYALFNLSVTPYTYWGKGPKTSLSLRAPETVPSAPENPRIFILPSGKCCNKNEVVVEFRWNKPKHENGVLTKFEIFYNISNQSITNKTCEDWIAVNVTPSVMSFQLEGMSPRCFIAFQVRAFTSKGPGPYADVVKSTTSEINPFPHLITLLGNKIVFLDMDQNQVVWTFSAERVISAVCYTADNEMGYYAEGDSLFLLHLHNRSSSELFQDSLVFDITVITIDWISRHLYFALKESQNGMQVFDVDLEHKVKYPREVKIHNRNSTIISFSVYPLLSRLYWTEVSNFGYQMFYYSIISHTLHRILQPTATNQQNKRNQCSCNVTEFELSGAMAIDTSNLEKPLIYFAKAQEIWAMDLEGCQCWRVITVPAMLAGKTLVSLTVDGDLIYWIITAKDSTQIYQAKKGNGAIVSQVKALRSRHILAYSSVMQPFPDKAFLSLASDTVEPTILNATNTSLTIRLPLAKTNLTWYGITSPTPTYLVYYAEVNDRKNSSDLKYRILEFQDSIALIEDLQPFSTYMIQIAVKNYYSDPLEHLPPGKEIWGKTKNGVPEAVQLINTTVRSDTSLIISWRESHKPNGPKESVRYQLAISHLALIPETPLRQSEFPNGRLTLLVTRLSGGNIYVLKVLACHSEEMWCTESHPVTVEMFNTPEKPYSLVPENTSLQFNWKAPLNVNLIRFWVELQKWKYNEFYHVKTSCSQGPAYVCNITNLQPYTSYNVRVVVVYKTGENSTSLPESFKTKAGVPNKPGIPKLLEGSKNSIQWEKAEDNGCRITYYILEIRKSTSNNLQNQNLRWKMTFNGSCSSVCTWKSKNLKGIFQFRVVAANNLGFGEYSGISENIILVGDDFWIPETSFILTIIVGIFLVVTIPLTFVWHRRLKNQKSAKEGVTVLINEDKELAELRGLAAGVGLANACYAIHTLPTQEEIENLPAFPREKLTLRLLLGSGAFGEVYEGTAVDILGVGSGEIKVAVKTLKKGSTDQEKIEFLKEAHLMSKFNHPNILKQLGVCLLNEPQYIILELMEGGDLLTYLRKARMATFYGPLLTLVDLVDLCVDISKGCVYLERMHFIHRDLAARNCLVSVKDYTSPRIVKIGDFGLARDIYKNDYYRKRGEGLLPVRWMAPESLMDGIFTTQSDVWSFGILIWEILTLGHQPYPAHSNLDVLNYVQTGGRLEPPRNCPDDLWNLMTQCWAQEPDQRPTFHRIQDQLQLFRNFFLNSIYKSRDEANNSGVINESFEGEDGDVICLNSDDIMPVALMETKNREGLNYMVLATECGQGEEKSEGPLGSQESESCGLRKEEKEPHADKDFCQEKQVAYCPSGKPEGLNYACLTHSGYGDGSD

[10] = molecular target: T3, kinases (KINOMEscan panel) (Homo sapiens, UniProt O00141); conditions: kinase SGK1; NEW KINOMEscan
T3 sequence (O00141 1-431): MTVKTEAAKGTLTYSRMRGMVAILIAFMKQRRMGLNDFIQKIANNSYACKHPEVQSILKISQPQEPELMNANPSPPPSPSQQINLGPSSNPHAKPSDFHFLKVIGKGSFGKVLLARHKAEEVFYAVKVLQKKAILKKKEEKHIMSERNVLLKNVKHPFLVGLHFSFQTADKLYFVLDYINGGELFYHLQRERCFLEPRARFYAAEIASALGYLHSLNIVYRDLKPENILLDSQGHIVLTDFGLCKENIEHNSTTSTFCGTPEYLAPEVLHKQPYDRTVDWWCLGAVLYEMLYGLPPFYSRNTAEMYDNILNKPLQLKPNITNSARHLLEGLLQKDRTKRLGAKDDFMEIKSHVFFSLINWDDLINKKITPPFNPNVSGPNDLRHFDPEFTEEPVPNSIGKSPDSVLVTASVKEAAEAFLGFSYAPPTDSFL

[11] = molecular target: kinases (KINOMEscan panel) (Homo sapiens, UniProt Q9UEW8); conditions: NEW KINOMEscan
[12] = molecular target: kinases (KINOMEscan panel) (Homo sapiens, UniProt Q08345); conditions: DDR1; NEW KINOMEscan
[13] = molecular target: kinases (KINOMEscan panel) (Homo sapiens, UniProt P08069); conditions: kinase IGF1R; NEW KINOMEscan
kinases (KINOMEscan panel) (Homo sapiens, UniProt P08069), sequence (P08069 31-1367): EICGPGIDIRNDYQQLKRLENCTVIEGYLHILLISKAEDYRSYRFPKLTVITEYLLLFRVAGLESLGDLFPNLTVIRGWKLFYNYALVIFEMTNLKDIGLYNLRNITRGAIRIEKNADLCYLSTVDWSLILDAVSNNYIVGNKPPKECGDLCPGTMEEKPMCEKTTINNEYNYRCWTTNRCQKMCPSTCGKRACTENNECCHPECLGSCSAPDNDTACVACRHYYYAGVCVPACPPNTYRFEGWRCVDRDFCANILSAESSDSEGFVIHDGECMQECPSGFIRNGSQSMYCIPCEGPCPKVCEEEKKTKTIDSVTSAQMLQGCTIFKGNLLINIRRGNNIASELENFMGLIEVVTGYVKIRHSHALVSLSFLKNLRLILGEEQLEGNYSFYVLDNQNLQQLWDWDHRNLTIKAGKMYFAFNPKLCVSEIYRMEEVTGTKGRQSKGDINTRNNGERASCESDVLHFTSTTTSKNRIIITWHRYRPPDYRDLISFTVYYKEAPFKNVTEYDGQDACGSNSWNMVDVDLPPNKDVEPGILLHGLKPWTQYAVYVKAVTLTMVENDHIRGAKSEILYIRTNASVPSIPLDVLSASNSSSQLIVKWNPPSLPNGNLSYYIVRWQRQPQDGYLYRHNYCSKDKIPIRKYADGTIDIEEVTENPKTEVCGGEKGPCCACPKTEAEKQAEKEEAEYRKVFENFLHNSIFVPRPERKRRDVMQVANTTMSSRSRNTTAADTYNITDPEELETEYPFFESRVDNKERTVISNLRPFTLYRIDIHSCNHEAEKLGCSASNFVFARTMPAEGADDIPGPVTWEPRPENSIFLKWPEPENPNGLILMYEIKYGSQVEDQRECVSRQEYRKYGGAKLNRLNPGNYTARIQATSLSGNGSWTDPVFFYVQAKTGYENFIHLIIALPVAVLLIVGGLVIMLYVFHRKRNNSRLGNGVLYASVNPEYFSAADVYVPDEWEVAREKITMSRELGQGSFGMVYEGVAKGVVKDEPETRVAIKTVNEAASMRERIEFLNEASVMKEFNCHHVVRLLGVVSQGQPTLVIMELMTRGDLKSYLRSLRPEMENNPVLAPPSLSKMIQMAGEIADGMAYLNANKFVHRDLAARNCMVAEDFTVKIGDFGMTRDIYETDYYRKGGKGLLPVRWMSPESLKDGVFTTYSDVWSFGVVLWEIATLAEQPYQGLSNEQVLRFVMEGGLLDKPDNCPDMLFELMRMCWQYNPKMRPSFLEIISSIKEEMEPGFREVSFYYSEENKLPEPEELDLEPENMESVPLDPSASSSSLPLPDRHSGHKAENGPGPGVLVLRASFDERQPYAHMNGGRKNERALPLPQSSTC

[14] = molecular target: kinases (KINOMEscan panel) (Homo sapiens, UniProt Q13705); conditions: kinase ACVR2B; NEW KINOMEscan

kinases (KINOMEscan panel) (Homo sapiens, UniProt Q9HAZ1), sequence (Q9HAZ1 whole entry): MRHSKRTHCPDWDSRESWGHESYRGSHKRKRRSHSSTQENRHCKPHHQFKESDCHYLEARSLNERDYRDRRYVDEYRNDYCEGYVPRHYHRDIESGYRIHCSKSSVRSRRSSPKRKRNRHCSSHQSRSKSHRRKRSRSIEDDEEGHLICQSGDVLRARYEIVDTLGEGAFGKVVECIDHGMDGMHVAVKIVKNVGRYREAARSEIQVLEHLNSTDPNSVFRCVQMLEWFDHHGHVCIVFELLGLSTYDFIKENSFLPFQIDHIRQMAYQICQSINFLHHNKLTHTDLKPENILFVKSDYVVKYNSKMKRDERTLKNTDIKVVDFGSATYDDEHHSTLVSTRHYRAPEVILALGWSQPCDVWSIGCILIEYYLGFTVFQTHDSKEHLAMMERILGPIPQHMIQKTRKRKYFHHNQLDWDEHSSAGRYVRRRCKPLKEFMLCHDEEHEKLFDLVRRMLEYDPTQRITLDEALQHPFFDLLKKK

Row | SMILES | KINOMEscan CLK4 [1] | KINOMEscan FLT3(D835Y) [2] | KINOMEscan ITK [3] | KINOMEscan CAMK1D [4] | KINOMEscan EGFR(L858R) [5] | KINOMEscan CLK2 [6] | KINOMEscan PIK3CB [7] | KINOMEscan AXL [8] | KINOMEscan ROS1 [9] | KINOMEscan SGK1 [10] | KINOMEscan STK39 [11] | KINOMEscan DDR1 [12] | KINOMEscan IGF1R [13] | KINOMEscan ACVR2B [14]
1 | Cc1cccc(-c2nc(Nc3ccc4nn(C)cc4c3)c3ccccc3n2)n1 [NK167] | 22 | 0 | 0 | 0 | 0 | 0 | 0 | 0 | 0 | 0 | 11 | 0 | 0 | 0
2 | Cc1cccc(-c2nc(N(C)c3ccc4ncsc4c3)c3ccccc3n2)n1 [NK-161] | 10 | 3 | 14 | 0 | 2 | 0 | 0 | 0 | 0 | 14 | 0 | 0 | 14 | 22
